# Experimental data from the supplement of paper PMC10307832.
# What was measured:
# Assay in all cases: relative viability (nuclei count vs DMSO), 5 days (fraction); higher = more cells survive
# Tanzisertib + Alpelisib = compound: O[C@H]1CC[C@H](Nc2ncc3nc(Nc4c(F)cc(F)cc4F)n([C@H]4CCOC4)c3n2)CC1 [Tanzisertib] + Cc1nc(NC(=O)N2CCC[C@H]2C(N)=O)sc1-c1ccnc(C(C)(C)C(F)(F)F)c1 [Alpelisib] (partner 2 µM)
# Summary of the method: (§1)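 Relative viability was taken as the ratio of nuclei in treated wells to nuclei in vehicle wells. Lung cancer cell lines in 1536-well plates received compounds by pin tool one day after seeding, either one drug alone or a fixed anchor-drug dose plus five library-drug doses (not always all listed) in √10 steps. Nuclei were counted on 4× images after 5 days of treatment, and values are medians of duplicate plates.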
# Tanzisertib + Navitoclax = compound: O[C@H]1CC[C@H](Nc2ncc3nc(Nc4c(F)cc(F)cc4F)n([C@H]4CCOC4)c3n2)CC1 [Tanzisertib] + CC1(C)CCC(c2ccc(Cl)cc2)=C(CN2CCN(c3ccc(C(=O)NS(=O)(=O)c4ccc(N[C@H](CCN5CCOCC5)CSc5ccccc5)c(S(=O)(=O)C(F)(F)F)c4)cc3)CC2)C1 [Navitoclax] (partner 0.5 µM)
# Summary of the method: as §1
# Tanzisertib + Tozasertib = compound: O[C@H]1CC[C@H](Nc2ncc3nc(Nc4c(F)cc(F)cc4F)n([C@H]4CCOC4)c3n2)CC1 [Tanzisertib] + Cc1cc(Nc2cc(N3CCN(C)CC3)nc(Sc3ccc(NC(=O)C4CC4)cc3)n2)n[nH]1 [Tozasertib] (partner 0.1 µM)
# Summary of the method: as §1
# [1] = compound: C1CNCCC1C2=CC(=NN2)C3=CC=NC=C3 + CC1(C)CCC(c2ccc(Cl)cc2)=C(CN2CCN(c3ccc(C(=O)NS(=O)(=O)c4ccc(N[C@H](CCN5CCOCC5)CSc5ccccc5)c(S(=O)(=O)C(F)(F)F)c4)cc3)CC2)C1 [Navitoclax] (partner 0.5 µM)
# Summary of the method: as §1
Cell Line,relative viability (Tanzisertib + Alpelisib; first compound 0.08 µM),relative viability (Tanzisertib + Alpelisib; first compound 0.253 µM),relative viability (Tanzisertib + Alpelisib; first compound 0.8 µM),relative viability (Tanzisertib + Alpelisib; first compound 2.53 µM),relative viability (Tanzisertib + Alpelisib; first compound 8 µM),relative viability (Tanzisertib + Navitoclax; first compound 0.08 µM),relative viability (Tanzisertib + Navitoclax; first compound 0.253 µM),relative viability (Tanzisertib + Navitoclax; first compound 0.8 µM),relative viability (Tanzisertib + Navitoclax; first compound 2.53 µM),relative viability (Tanzisertib + Navitoclax; first compound 8 µM),relative viability (Tanzisertib + Tozasertib; first compound 0.08 µM),relative viability (Tanzisertib + Tozasertib; first compound 0.253 µM),relative viability (Tanzisertib + Tozasertib; first compound 0.8 µM),relative viability (Tanzisertib + Tozasertib; first compound 2.53 µM),relative viability (Tanzisertib + Tozasertib; first compound 8 µM),relative viability ([1]; first compound 0.08 µM),relative viability ([1]; first compound 0.8 µM),relative viability ([1]; first compound 2.53 µM),relative viability ([1]; first compound 8 µM)
201T,1.03,1.04,1.01,0.993,1.01,1.19,1.18,1.23,1.18,1.18,0.989,0.923,0.943,0.866,0.875,1.25,1.15,1.2,1.18
A549,0.759,0.648,0.709,0.706,0.712,1.3,1.08,1.26,1.1,1.3,–,–,–,–,–,1.1,1.27,1.38,1.3
A-427,1.11,1.11,1.06,1.06,0.96,0.952,0.938,1.01,0.86,0.958,0.244,0.196,0.214,0.198,0.2,0.954,0.913,1.02,0.93
ABC-1,1.1,1.06,1.03,1.3,1.09,–,–,–,–,–,0.165,0.197,0.175,0.137,0.134,–,–,–,–
BEN,0.978,1.04,1.08,0.955,1.01,0.0685,0.0675,0.0797,0.072,0.0632,0.464,0.451,0.621,0.418,0.407,0.0512,0.0642,0.0601,0.0843
CAL-12T,1.32,1.14,1.09,1.4,1.17,1.21,1.18,1.37,1.37,1.34,0.361,0.409,0.307,0.264,0.266,1.11,1.45,1.29,1.43
COR-L23,0.784,0.759,0.743,0.807,0.793,1.15,1.05,0.979,1.24,1.03,0.201,0.228,0.184,0.189,0.121,0.905,1.3,1.1,1.03
COR-L 105,1.19,0.832,1.07,1.09,0.924,0.88,0.789,0.728,0.819,0.683,0.386,0.366,0.323,0.388,0.331,0.751,0.706,0.774,0.788
Calu-6,1.12,0.96,0.934,0.994,0.988,0.872,0.835,0.9,0.848,0.994,–,–,–,–,–,0.879,0.86,0.914,0.87
ChaGo-K-1,–,–,–,–,–,1.01,1.08,1.1,0.79,0.683,0.251,0.227,0.216,0.218,0.217,0.861,1.29,0.682,1.01
EBC-1,0.999,0.789,0.829,0.792,0.697,0.433,0.419,0.451,0.404,0.318,–,–,–,–,–,0.463,0.517,0.5,0.392
EKVX,0.72,0.846,0.952,0.832,0.685,0.95,0.923,0.96,0.91,0.861,0.403,0.395,0.407,0.36,0.377,1.03,0.713,1.07,0.96
EMC-BAC-2,0.78,0.754,0.725,0.688,0.688,1.23,1.16,1.18,1.12,1.07,0.268,0.275,0.262,0.277,0.277,1.11,1.37,1.25,1.14
EPLC-272H,0.998,0.942,0.951,1.01,0.971,1.33,1.14,0.971,1.17,1.04,0.308,0.183,0.326,0.303,0.171,1.12,1.22,1.19,1.17
H3255,0.739,0.718,0.665,0.629,0.471,0.618,0.587,0.428,0.434,0.12,0.736,0.607,0.675,0.588,0.427,0.52,0.444,0.738,0.537
HARA,0.752,0.762,0.852,0.795,0.842,1.13,1.18,1.13,1.14,1.22,0.136,0.112,0.109,0.0917,0.103,1.13,1.14,1.17,1.2
HCC-15,1.04,0.884,0.924,0.874,0.797,0.754,0.699,0.702,0.671,0.694,0.535,0.294,0.391,0.4,0.27,0.756,0.785,0.706,0.662
HCC-44,0.839,0.834,0.852,0.768,0.75,1.18,0.985,0.992,0.916,0.973,1.05,0.913,1.04,0.976,1.02,0.931,1,1.07,0.971
